Here are results for 4 compounds from patent US7737305B2, “Sulfonic acid polyol compound, polyurethane resin, polyurethane resin for magnetic recording medium, and magnetic recording medium” (FUJIFILM Corporation, priority 2007, dated 2010).

Each structure is given as a SMILES string.

Data set [1] in a line: Solubility test in cyclohexanone (residue after dissolution). Type of data set: physicochemical. Particulars: 1 part by weight in 5 parts by weight of cyclohexanone, 40° C., 3 hours, ultrasonic waves, filtered. The procedure: (1-2) Solubility Test Method
1 part by weight of sulfonic acid (salt) diol compound was added to 5 parts by weight of cyclohexanone, and dissolution was carried out at 40° C. for 3 hours using ultrasonic waves. A solution thus obtained was filtered, and the presence/absence of a residue after dissolution was checked.

The conditions of data set [2]: background statement; cited from earlier work.

For `O=S(=O)([O-])CCN(CCO)CCO.[Li+]`, the “presence/absence of a residue after dissolution” value (shortened to “presence/absence of a residue”) in data set [1] was “a residue was found”.
The same measure, in the same setting: for `O=S(=O)([O-])CCN(CCO)CCO.[Na+]` the value was “a residue was found”.
In the case of `O=S(=O)(O)CCN(CCO)CCO` [N,N-bis(2-hydroxyethyl)-2-aminoethanesulfonic acid], the “presence/absence of a residue” value in data set [1] is listed as “a residue was found”. The “solubility in organic solvents” value in data set [2] is reported as “does not dissolve in organic solvents”.
On to `O=S(=O)([O-])CCN(CCO)CCO.[K+]`, for which the “presence/absence of a residue” value in data set [1] is given as “a residue was found”.
